Literature values in patent US12064417B2, “Combination comprising a glucocorticoid and EDO-S101” (Purdue Pharmaceutical Products L.P., priority 2014, dated 2024).

Tested on: multiple myeloma cell lines
Settings: in vitro, relative to bendamustin

Cn1c(CCCCCCC(=O)NO)nc2cc(N(CCCl)CCCl)ccc21 [EDO-S101]
activity greater than the activity shown by bendamustin: 35-100
